# Target: mTOR/GbL/Raptor (mTORC1) (Homo sapiens, UniProt P42345)
# Assay: mTOR/GbL/Raptor (mTORC1) ELISA assay
# Assay type: biochemical
# Conditions: phosphorylation of 4E-BP1; 0.2 nM mTORC1, 10 μM ATP; read-out: IC50 in this assay (mTORC1 ELISA)
# Outline: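 ELISA read-out: phospho-4E-BP1 captured on Ni-chelate plates and detected with anti-phospho antibody plus HRP-anti-IgG luminescence. The kinase step ran 120 min at ambient temperature with 0.2 nM human mTORC1, 10 µM ATP, 50 nM His-4E-BP1, 10 mM MnCl2, pH 7.2 HEPES.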
row,SMILES,IC50
1,"CC1(C)CCc2ncnc(N3CCOc4ccc(-c5cnc(N)c(S(=O)(=O)CCCO)c5)cc4C3)c2C1 [Example 430, 3-({2-amino-5-[4-(6,6-dimethyl-5,6,7,8-tetrahydroquinazolin-4-yl)-2,3,4,5-tetrahydro-1,4-benzoazepin-7-yl]pyridin-3-yl}sulfonyl)propan-1-ol]",10 to 50 nM
2,"CCNc1nc2ccc(-c3ccc4c(c3)CN(c3cc(C)nc5cc(OC)ccc35)CCO4)cc2[nH]1 [Example 247, N-ethyl-6-{4-[2-methyl-7-(methyloxy)quinolin-4-yl]-2,3,4,5-tetrahydro-1,4-benzoxazepin-7-yl}-1H-benzimidazol-2-amine]",250 to 1000 nM
3,"c1ccc2c(N3CCOc4ccc(-c5ccc6nc(C7CNC7)[nH]c6c5)cc4C3)ccnc2c1 [Example 201, 7-(2-azetidin-3-yl-1H-benzimidazol-6-yl)-4-quinolin-4-yl-2,3,4,5-tetrahydro-1H-benzoxazepine]",1000 to 2000 nM
4,"CN(C)Cc1nc2c(c(N3CCOc4ccc(-c5ccc(N)nc5)cc4C3)n1)CC(C)(C)CC2 [Example 509, 5-(4-{2-[(dimethylamino)methyl]-6,6-dimethyl-5,6,7,8-tetrahydroquinazolin-4-yl}-2,3,4,5-tetrahydro-1,4-benzoxazepin-7-yl)pyridin-2-amine]",50 to 250 nM
5,"CCNc1nc2ncc(-c3ccc4c(c3)CN(c3nc(C)nc5cc(OC)ccc35)CCO4)cc2[nH]1 [Example 642, N-ethyl-6-{4-[2-methyl-7-(methyloxy)quinazolin-4-yl]-2,3,4,5-tetrahydro-1,4-benzoxazepin-7-yl}-1H-imidazo[4,5-b]pyridin-2-amine]",10 to 50 nM
6,Cc1nc2ncc(-c3ccc4c(c3)CN(c3ncnc(N5CCOCC5)c3C)CCO4)cc2[nH]1 [Example 551],250 to 1000 nM
7,"COc1ccc2c(N3CCOc4ccc(-c5cnc(N)nc5)cc4C3)nc(C)nc2c1 [Example 286, 5-{4-[2-methyl-7-(methyloxy)quinazolin-4-yl]-2,3,4,5-tetrahydro-1,4-benzoxazepin-7-yl}pyrimidin-2-amine]",≥ 2000 nM
8,"Cc1nc2ccc(-c3ccc4c(c3)CN(c3ccnc5cc(F)ccc35)CCO4)cc2[nH]1 [Example 241, 4-(7-fluoroquinolin-4-yl)-7-(2-methyl-1H-benzimidazol-6-yl)-2,3,4,5-tetrahydro-1,4-benzoxazepine]",250 to 1000 nM
9,"CN(C)Cc1nc2c(c(N3CCOc4ccc(-c5ccc(Cl)c(C(N)=O)c5)cc4C3)n1)CC(C)(C)CC2 [Example 428, 2-chloro-5-(4-{2-[(dimethylamino)methyl]-6,6-dimethyl-5,6,7,8-tetrahydroquinazolin-4-yl}-2,3,4,5-tetrahydro-1,4-benzoxazepin-7-yl)benzamide]",≥ 2000 nM
10,"Cc1nc2cc(-c3ccc4c(c3)CN(c3nc(N)nc(C)c3Cc3ccc(F)cc3)CCO4)cnc2[nH]1 [Example 690, 5-[(4-fluorophenyl)methyl]-4-methyl-6-[7-(2-methyl-3H-imidazo[4,5-b]pyridin-6-yl)-2,3-dihydro-1,4-benzoxazepin-4(5H)-yl]pyrimidin-2-amine]",≤ 10 nM
11,"Cc1nc2ccc(-c3ccc4c(c3)CN(c3ccnc(C)c3Cc3ccccc3)CCO4)cc2[nH]1 [Example 101, 7-(2-methyl-1H-benzimidazol-6-yl)-4-[2-methyl-3-(phenylmethyl)pyridin-4-yl]-2,3,4,5-tetrahydro-1,4-benzoxazepine]",10 to 50 nM
12,"Cc1ncnc(N2CCOc3ccc(-c4cnc(N)s4)cc3C2)c1Cc1ccc(F)cc1 [Example 124, 5-(4-{5-[(4-fluorophenyl)methyl]-6-methylpyrimidin-4-yl}-2,3,4,5-tetrahydro-1,4-benzoxazepin-7-yl)-1,3-thiazol-2-amine]",≤ 10 nM
13,CC[C@H]1CCCc2c(ncnc2N2CCOc3ccc(-c4cnc5nc(C)[nH]c5c4)cc3C2)C1 [Example 490],≤ 10 nM
14,"COc1ccc2c(N3CCOc4ccc(-c5cnc6nc(C)[nH]c6c5)cc4C3)nc(CN(C)C)nc2c1 [Example 613, N,N-dimethyl-1-{4-[7-(2-methyl-1H-imidazo[4,5-b]pyridin-6-yl)-2,3-dihydro-1,4-benzoxazepin-4(5H)-yl]-7-(methyloxy)quinazolin-2-yl}methanamine]",250 to 1000 nM

# From patent US8648066B2 (Exelixis, Inc., priority 2009, dated 2014)
